# In patent US20230278972A1, “SUBSTITUTED HALOALKYL SULFONANILIDE HERBICIDES” (FMC Corporation, priority 2020, published 2023):
# Like-named read-outs stand apart in the source and are kept apart here.
# Key:
# [1] = test system: pigweed (Amaranthus retroflexus); test: Test A preemergence, pigweed; type: in vivo; conditions: Amaranthus retroflexus, pre-emergence, 240 h; for pest or weed control at 125 g/ha: 125 g ai/ha; for pest or weed control at 500 g/ha: 500 g ai/ha
# Outline: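 Formulated with a surfactant in a non-phytotoxic solvent, compounds are applied to loam–sand pots, either to bare soil immediately after seeding (preemergence) or to seedlings of 2 to 10 cm bearing one to two leaves (postemergence).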
# [2] = visual injury, 0 to 100 scale (0 no effect, 100 complete control), approx. 10 days, read-out: Plant response rating, Pigweed
# [3] = visual injury on 0 to 100 scale (0 no effect, 100 complete control), approximately 10 days, read-out: Pigweed plant response rating
# [4] = 0 to 100 scale (0 no effect, 100 complete control), read-out: Plant response rating, Pigweed
melting point,Compound,"pest or weed control at 125 g/ha [1, 2]","pest or weed control at 500 g/ha [1, 3]","pest or weed control at 125 g/ha [1, 3]","pest or weed control at 500 g/ha [1, 4]"
–,"Cc1cc(C)c(C(=O)N2CCC(F)(F)CC2)cc1NS(=O)(=O)C(F)(F)F [Compound 241, N-[5-[(4,4-Difluoro-1-piperidinyl)carbonyl]-2,4-dimethylphenyl]-1,1,1-trifluoromethanesulfonamide]",100%,100%,–,–
–,"Cc1cc(Cl)c(NS(=O)(=O)C(F)(F)F)cc1C(=O)N1CCCCC1 [Compound 18, N-[2-Chloro-4-methyl-5-(1-piperidinylcarbonyl)phenyl]-1,1,1-trifluoromethanesulfonamide]",–,–,100%,100%
–,"Cc1cc(Cl)c(NS(=O)(=O)C(F)(F)F)cc1C(=O)N1CCC(F)(F)CC1 [Compound 229, N-[2-Chloro-5-[(4,4-difluoro-1-piperidinyl)carbonyl]-4-methylphenyl]-1,1,1-trifluoromethanesulfonamide]",100%,100%,–,–
–,"Cc1cc(C)c(N(COC(=O)C(C)(C)C)S(=O)(=O)C(F)(F)F)cc1C1=NO[C@@H]2CCC[C@H]12 [Compound 100, [[2,4-Dimethyl-5-[(3aR,6aR)-3a,5,6,6a-tetrahydro-4H-cyclopent[d]isoxazol-3-yl]phenyl][(trifluoromethyl)sulfonyl]amino]methyl 2,2-dimethylpropanoate]",–,–,70%,80%
–,"Cc1cc(Cl)c(NS(=O)(=O)C(F)(F)F)cc1C(=O)N1CCOCC1 [Compound 16, N-[2-Chloro-4-methyl-5-(4-morpholinylcarbonyl)phenyl]-1,1,1-trifluoromethanesulfonamide]",–,–,100%,100%
–,"Cc1cc(C)c(C2=NOC3(CCCC3)C2)cc1NS(=O)(=O)C(F)(F)F [Compound 207, N-[2,4-Dimethyl-5-(1-oxa-2-azaspiro[4.4]non-2-en-3-yl)phenyl]-1,1,1-trifluoromethanesulfonamide]",100%,–,–,100%
–,"Cc1cc(C)c(C2=NO[C@@H]3CCC[C@H]23)cc1NS(=O)(=O)C(F)(F)F [Compound 103, N-[2,4-Dimethyl-5-[(3aR,6aR)-3a,5,6,6a-tetrahydro-4H-cyclopent[d]isoxazol-3-yl]phenyl]-1,1,1-trifluoromethanesulfonamide]",–,–,100%,100%
117 to 120 °C,"Cc1cc(C)c(C2=NOC3COCCC23)cc1NS(=O)(=O)C(F)(F)F (centres unmarked) [Compound 121, N-[2,4-Dimethyl-5-(3a,4,7,7a-tetrahydro-5H-pyrano[4,3-d]isoxazol-3-yl)phenyl]-1,1,1-trifluoromethanesulfonamide]",–,–,–,–
–,"Cc1cc(C)c(C2=NOC3(CCCCC3)C2)cc1NS(=O)(=O)C(F)(F)F [Compound 197, N-[2,4-Dimethyl-5-(1-oxa-2-azaspiro[4.5]dec-2-en-3-yl)phenyl]-1,1,1-trifluoromethanesulfonamide]",80%,–,–,100%
243 to 245 °C,"Cc1c(NS(=O)(=O)C(F)(F)F)cc(C(=O)N(C)C)c(C)c1F [Compound 128, 3-Fluoro-N,N,2,4-tetramethyl-5-[[(trifluoromethyl)sulfonyl]amino]benzamide]",–,–,100%,100%
247 to 250 °C,"Cc1c(NS(=O)(=O)C(F)(F)F)cc(C(=O)N2CCOCC2)c(C)c1C [Compound 289, 1,1,1-Trifluoro-N-[2,3,4-trimethyl-5-(4-morpholinylcarbonyl)phenyl]methanesulfonamide]",–,–,–,–
236 to 240 °C,"Cc1c(NS(=O)(=O)C(F)(F)F)cc(C(=O)N2CCOCC2)c(C)c1F [Compound 190, 1,1,1-Trifluoro-N-[3-fluoro-2,4-dimethyl-5-(4-morpholinylcarbonyl)phenyl]methanesulfonamide]",100%,–,–,100%
–,"Cc1cc(C)c(N(COC(=O)C(C)(C)C)S(=O)(=O)C(F)(F)F)cc1C1=NOC2(CCCC2)C1 [Compound 140, [[2,4-Dimethyl-5-(1-oxa-2-azaspiro[4.4]non-2-en-3-yl)phenyl][(trifluoromethyl)sulfonyl]amino]methyl 2,2-dimethylpropanoate]",–,–,0%,50%
